Source: patent US7396837B2, “Antitumoral analogs of lamellarins” (Pharma Mar, S.A.U., priority 2002, dated 2008)
Like-named read-outs stand apart in the source and are kept apart here.

Experiments:
Format in all cases: cell-based
K-562 = test: SRB colorimetric cell growth inhibition assay, K-562; details: Homo sapiens; for GI50: GI=growth inhibition, read-out: GI50 K-562; for IC (TGI): TGI=total growth inhibition (cytostatic effect), read-out: TGI K-562; for CC50: LC=cell killing (cytotoxic effect)
Procedure, shortened: (§1)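 In this cytotoxicity screen, compound stays in contact with the cultured human cancer cells without washout; sulforhodamine B binding gives the measure of cell number, and endpoints separate growth inhibition from cytostasis (TGI) and killing (LC).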

A-549 = test: SRB colorimetric cell growth inhibition assay, A-549; details: Homo sapiens; for GI50: GI=growth inhibition, read-out: GI50 A-549; for IC (TGI): TGI=total growth inhibition (cytostatic effect), read-out: TGI A-549; for CC50: LC=cell killing (cytotoxic effect)
Procedure, shortened: as §1

SK-MEL-28 = test: SRB colorimetric cell growth inhibition assay, SK-MEL-28; details: Homo sapiens; for GI50: GI=growth inhibition, read-out: GI50 MEL-28; for CC50: LC=cell killing (cytotoxic effect); for IC (TGI): SK-MEL-28, MEL-28, TGI=total growth inhibition (cytostatic effect), read-out: TGI MEL-28
Procedure, shortened: as §1

HT-29 = test: SRB colorimetric cell growth inhibition assay, HT-29; details: Homo sapiens; for CC50: LC=cell killing (cytotoxic effect); for GI50 / IC (TGI): HT-29; for GI50: GI=growth inhibition, read-out: GI50 HT-29; for IC (TGI): TGI=total growth inhibition (cytostatic effect), read-out: TGI HT-29
Procedure, shortened: as §1

LoVo = test: SRB colorimetric cell growth inhibition assay, LoVo; details: Homo sapiens; for CC50: LC=cell killing (cytotoxic effect); for GI50: GI=growth inhibition, read-out: GI50 LOVO; for IC (TGI): TGI=total growth inhibition (cytostatic effect), read-out: TGI LOVO
Procedure, shortened: as §1

LoVo-Dox = test: SRB colorimetric cell growth inhibition assay, LoVo-Dox (MDR)
Procedure, shortened: as §1

DU-145 = test: SRB colorimetric cell growth inhibition assay, DU-145; details: Homo sapiens; for CC50: LC=cell killing (cytotoxic effect); for GI50: GI=growth inhibition, read-out: GI50 DU-145; for IC (TGI): TGI=total growth inhibition (cytostatic effect), read-out: TGI DU-145
Procedure, shortened: as §1

SK-BR-3 = test: SRB colorimetric cell growth inhibition assay, SK-BR-3; details: Homo sapiens; for CC50: LC=cell killing (cytotoxic effect); for GI50: GI=growth inhibition, read-out: GI50 SK-BR-3; for IC (TGI): TGI=total growth inhibition (cytostatic effect), read-out: TGI SK-BR-3
Procedure, shortened: as §1

IGROV = test: SRB colorimetric cell growth inhibition assay, IGROV
Procedure, shortened: as §1

IGROV-ET = test: SRB colorimetric cell growth inhibition assay, IGROV-ET (ET-743 resistant); details: Homo sapiens; for GI50: GI=growth inhibition, read-out: GI50 IGROV-ET; for IC (TGI): TGI=total growth inhibition (cytostatic effect), read-out: TGI IGROV-ET; for CC50: LC=cell killing (cytotoxic effect)
Procedure, shortened: as §1

PANC-1 = test: SRB colorimetric cell growth inhibition assay, PANC-1; details: Homo sapiens; for IC (TGI): TGI=total growth inhibition (cytostatic effect), read-out: TGI PANC-1; for CC50: LC=cell killing (cytotoxic effect); for GI50: GI=growth inhibition, read-out: GI50 PANC-1
Procedure, shortened: as §1

SKOV-3 = test: SRB colorimetric cell growth inhibition assay, SKOV-3; details: Homo sapiens; for CC50: SK-OV-3, read-out: LC50 SKOV-3; for IC (TGI): TGI=total growth inhibition (cytostatic effect)
Source text: Inhibition of Cell Growth by Colorimetric Assay.
A colorimetric type of assay, using sulforhodamine B (SRB) reaction has been adapted for a quantitative measurement of cell growth and viability (following the technique described by P. A. Skehan, et al., J. Natl. Cancer Inst. 1990, 82, 1107-1112).
This form of assay employs 96 well cell culture microplates of 9 mm diameter (T. Mosmann et al., J. of Immunological Methods 1983, 65, 55-63; G. T. Faircloth et al., J. of Tissue and Culture Methods 1988, 11, 201-205).
Most of the cell lines are obtained from American Type Culture Collection (ATCC) derived from different human cancer types.
The values for mean +/− SD of data from triplicate wells are calculated. Some parameters for cellular responses can be calculated: GI=growth inhibition, TGI=total growth inhibition (cytostatic effect) and LC=cell killing (cytotoxic effect).

[1] = Homo sapiens, LOVO-DOX; GI=growth inhibition; read-out: GI50 LOVO-DOX

COc1cc(-c2c3c4cc(OC)c(OC(=O)[C@@H](N)CCCCNC(=O)OCc5ccccc5)cc4oc(=O)c3n3ccc4c(OC(=O)[C@@H](N)CCCCNC(=O)OCc5ccccc5)c(OC)c(OC)cc4c23)ccc1OC(=O)[C@@H](N)CCCCNC(=O)OCc1ccccc1 [Compound 44]
GI50 (K-562; K562, K-562): 0.182 µM
IC (TGI) (K-562; K562, K-562): 0.686 µM
CC50 (K-562; K562, read-out: LC50 K-562, K-562): 5.36 µM
GI50 (A-549; A549, A-549): 5.44 µM
IC (TGI) (A-549; A549, A-549): 7.6 µM
CC50 (A-549; A549, read-out: LC50 A-549, A-549): 7.6 µM
GI50 (SK-MEL-28; SK-MEL-28, MEL-28): 0.48 µM
CC50 (SK-MEL-28; SK-MEL-28, read-out: LC50 MEL-28, MEL-28): 7.6 µM
IC (TGI) (SK-MEL-28): 3.21 µM
CC50 (HT-29; HT-29, read-out: LC50 HT-29, HT-29): 7.6 µM
GI50 (HT-29): 7.6 µM
IC (TGI) (HT-29): 7.6 µM
CC50 (LoVo; LoVo, read-out: LC50 LOVO, LOVO): 7.6 µM
GI50 (LoVo; LOVO): 0.374 µM
IC (TGI) (LoVo; LOVO): 3.18 µM
GI50 (LoVo-Dox; [1]): 0.608 µM
CC50 (LoVo-Dox; Homo sapiens, read-out: LC50 LOVO-DOX, LOVO-DOX; LC=cell killing (cytotoxic effect)): 7.6 µM
IC (TGI) (LoVo-Dox; Homo sapiens; LOVO-DOX; TGI=total growth inhibition (cytostatic effect); read-out: TGI LOVO-DOX): 2.51 µM
CC50 (DU-145; DU-145, read-out: LC50 DU-145, DU-145): 7.6 µM
GI50 (DU-145; DU-145): 0.0485 µM
IC (TGI) (DU-145; DU-145): 0.273 µM
CC50 (SK-BR-3; SK-BR-3, read-out: LC50 SK-BR-3, SK-BR-3): 7.6 µM
GI50 (SK-BR-3; SK-BR-3): 0.122 µM
IC (TGI) (SK-BR-3; SK-BR-3): 0.866 µM
CC50 (IGROV; Homo sapiens, IGROV, read-out: LC50 IGROV, IGROV; LC=cell killing (cytotoxic effect)): 5.06 µM
GI50 (IGROV; Homo sapiens; IGROV; GI=growth inhibition; read-out: GI50 IGROV): 1.06 µM
IC (TGI) (IGROV; Homo sapiens; IGROV; TGI=total growth inhibition (cytostatic effect); read-out: TGI IGROV): 2.32 µM
GI50 (IGROV-ET; IGROV-ET): 1.18 µM
IC (TGI) (IGROV-ET; IGROV-ET): 3.58 µM
CC50 (IGROV-ET; read-out: LC50 IGROV-ET, IGROV-ET): 7.6 µM
IC (TGI) (PANC-1; PANC-1, PANC-1): 4.35 µM
CC50 (PANC-1; PANC-1, read-out: LC50 PANC-1, PANC-1): 7.6 µM
GI50 (PANC-1; PANC-1): 1.17 µM
GI50 (SKOV-3; SK-OV-3, read-out: GI50 SKOV-3): 0.0988 µM
CC50 (SKOV-3): 7.6 µM
IC (TGI) (SKOV-3; SK-OV-3, read-out: TGI SKOV-3, SKOV-3): 1.15 µM

COc1cc(-c2c3c4cc(OC)c(OC(=O)[C@@H](N)CC(C)C)cc4oc(=O)c3n3ccc4c(OC(=O)[C@@H](N)CC(C)C)c(OC)c(OC)cc4c23)ccc1OC(=O)[C@@H](N)CC(C)C [Compound 45]
GI50 (K-562; K562, K-562): 0.315 µM
CC50 (K-562; K562, K-562, read-out: LC50 K-562): 8.79 µM
IC (TGI) (K-562; K562, K-562): 1.73 µM
GI50 (A-549; A549, A-549): 4.35 µM
CC50 (A-549; A549, A-549, read-out: LC50 A-549): 11.5 µM
IC (TGI) (A-549; A549, A-549): 11.5 µM
GI50 (SK-MEL-28; SK-MEL-28, MEL-28): 0.898 µM
CC50 (SK-MEL-28; SK-MEL-28, MEL-28, read-out: LC50 MEL-28): 11.5 µM
IC (TGI) (SK-MEL-28): 11.5 µM
CC50 (HT-29; HT-29, HT-29, read-out: LC50 HT-29): 11.5 µM
GI50 (HT-29): 11.5 µM
IC (TGI) (HT-29): 11.5 µM
GI50 (LoVo; LoVo): 0.771 µM
CC50 (LoVo; LoVo, read-out: LC50 LOVO): 11.5 µM
IC (TGI) (LoVo; LoVo): 6.71 µM
GI50 (LoVo-Dox; [1]): 0.778 µM
CC50 (LoVo-Dox; Homo sapiens, LOVO-DOX; LC=cell killing (cytotoxic effect); read-out: LC50 LOVO-DOX): 11.5 µM
IC (TGI) (LoVo-Dox; Homo sapiens, LOVO-DOX; TGI=total growth inhibition (cytostatic effect); read-out: TGI LOVO-DOX): 4.51 µM
GI50 (DU-145; DU-145, DU-145): 0.105 µM
CC50 (DU-145; DU-145, DU-145, read-out: LC50 DU-145): 11.5 µM
IC (TGI) (DU-145; DU-145, DU-145): 0.549 µM
GI50 (SK-BR-3; SK-BR-3, SK-BR-3): 0.414 µM
CC50 (SK-BR-3; SK-BR-3, SK-BR-3, read-out: LC50 SK-BR-3): 11.5 µM
IC (TGI) (SK-BR-3; SK-BR-3, SK-BR-3): 1.58 µM
GI50 (IGROV; Homo sapiens, IGROV; GI=growth inhibition; read-out: GI50 IGROV): 1.57 µM
CC50 (IGROV; Homo sapiens, IGROV; LC=cell killing (cytotoxic effect); read-out: LC50 IGROV): 10.9 µM
IC (TGI) (IGROV; Homo sapiens, IGROV; TGI=total growth inhibition (cytostatic effect); read-out: TGI IGROV): 4.12 µM
GI50 (IGROV-ET; IGROV-ET): 2.58 µM
CC50 (IGROV-ET; IGROV-ET, read-out: LC50 IGROV-ET): 11.5 µM
IC (TGI) (IGROV-ET; IGROV-ET): 8.07 µM
GI50 (PANC-1; PANC-1, PANC-1): 2.03 µM
CC50 (PANC-1; PANC-1, PANC-1, read-out: LC50 PANC-1): 11.5 µM
IC (TGI) (PANC-1; PANC-1, PANC-1): 9.75 µM
GI50 (SKOV-3; SK-OV-3, SKOV-3, GI=growth inhibition, read-out: GI50 SKOV-3): 0.175 µM
CC50 (SKOV-3): 11.5 µM
IC (TGI) (SKOV-3; SK-OV-3, SKOV-3, read-out: TGI SKOV-3): 2.2 µM
